Test results reported in PubChem BioAssay AID2060601 (Molecular Pharmacology Branch, DTP, NCI, 2025).

System: 874868-142-R-J2-PDC complex spheroids, growth % test/control
Assay: Anticancer human tumor 874868-142-R-J2-PDC patient-derived head and neck squamous carcinoma cell line growth inhibition [CLK]
Conditions: for IC50: curve of first compound; for viability, T/C: stronger effect = lower value
Method in brief: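 Patient-derived tumor cells grown as complex spheroids with HUVEC endothelial cells and mesenchymal stem cells, treated with drug combinations. Concentrations descend in half-log steps from near clinical Cmax, or from 10 microM if Cmax unknown.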
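Note: spheroids exposed to the compounds for 7 days.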
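Throughout, for viability, T/C: 100% = DMSO vehicle control viability.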

## CC(C)CC(NC(=O)C(Cc1ccccc1)NC(=O)c1cnccn1)B(O)O (centres undefined) + CNC(=O)c1ccc(Nc2nc(OC3CCCC3)c3c(-c4ccc5nc(C)oc5c4)c[nH]c3n2)c(OC)c1
Second compound 0.0316 µM
  IC50: 4.48 nM
Second compound 0.1 µM
  IC50: 4.69 nM
Second compound 0.316 µM
  IC50: 4.24 nM
Second compound 1 µM
  IC50: < 0.949 nM
Second compound 3.16 µM
  IC50: < 0.949 nM
Second compound 10 µM
  IC50: < 0.949 nM
Second compound 0.0316 µM, first compound 0.000949 µM
  viability, T/C: 96.8%
Second compound 0.0316 µM, first compound 0.003 µM
  viability, T/C: 76.4%
Second compound 0.0316 µM, first compound 0.00949 µM
  viability, T/C: 0.57%
Second compound 0.0316 µM, first compound 0.03 µM
  viability, T/C: 0.3%
Second compound 0.0316 µM, first compound 0.0949 µM
  viability, T/C: 0.21%
Second compound 0.0316 µM, first compound 0.3 µM
  viability, T/C: 0.23%
Second compound 0.1 µM, first compound 0.000949 µM
  viability, T/C: 89.5%
Second compound 0.1 µM, first compound 0.003 µM
  viability, T/C: 80.7%
Second compound 0.1 µM, first compound 0.00949 µM
  viability, T/C: 1.32%
Second compound 0.1 µM, first compound 0.03 µM
  viability, T/C: 0.44%
Second compound 0.1 µM, first compound 0.0949 µM
  viability, T/C: 0.2%
Second compound 0.1 µM, first compound 0.3 µM
  viability, T/C: 4.13%
Second compound 0.316 µM, first compound 0.000949 µM
  viability, T/C: 66.8%
Second compound 0.316 µM, first compound 0.003 µM
  viability, T/C: 70.8%
Second compound 0.316 µM, first compound 0.00949 µM
  viability, T/C: 6.3%
Second compound 0.316 µM, first compound 0.03 µM
  viability, T/C: 0.22%
Second compound 0.316 µM, first compound 0.0949 µM
  viability, T/C: 0.26%
Second compound 0.316 µM, first compound 0.3 µM
  viability, T/C: 5.41%
Second compound 1 µM, first compound 0.000949 µM
  viability, T/C: 47.7%
Second compound 1 µM, first compound 0.003 µM
  viability, T/C: 31.9%
Second compound 1 µM, first compound 0.00949 µM
  viability, T/C: 0.47%
Second compound 1 µM, first compound 0.03 µM
  viability, T/C: 0.24%
Second compound 1 µM, first compound 0.0949 µM
  viability, T/C: 5.77%
Second compound 1 µM, first compound 0.3 µM
  viability, T/C: 17.3%
Second compound 3.16 µM, first compound 0.000949 µM
  viability, T/C: 45.3%
Second compound 3.16 µM, first compound 0.003 µM
  viability, T/C: 21.6%
Second compound 3.16 µM, first compound 0.00949 µM
  viability, T/C: 0.47%
Second compound 3.16 µM, first compound 0.03 µM
  viability, T/C: 0.19%
Second compound 3.16 µM, first compound 0.0949 µM
  viability, T/C: 7.41%
Second compound 3.16 µM, first compound 0.3 µM
  viability, T/C: 10.4%
Second compound 10 µM, first compound 0.000949 µM
  viability, T/C: 38.6%
Second compound 10 µM, first compound 0.003 µM
  viability, T/C: 20%
Second compound 10 µM, first compound 0.00949 µM
  viability, T/C: 3.06%
Second compound 10 µM, first compound 0.03 µM
  viability, T/C: 0.36%
Second compound 10 µM, first compound 0.0949 µM
  viability, T/C: 3.69%
Second compound 10 µM, first compound 0.3 µM
  viability, T/C: 6.49%

## O=C(c1cc(Cc2n[nH]c(=O)c3ccccc23)ccc1F)N1CCN(C(=O)C2CC2)CC1 + CNC(=O)c1ccc(Nc2nc(OC3CCCC3)c3c(-c4ccc5nc(C)oc5c4)c[nH]c3n2)c(OC)c1
Second compound 0.0316 µM
  IC50: > 10000 nM
Second compound 0.1 µM
  IC50: > 10000 nM
Second compound 0.316 µM
  IC50: > 10000 nM
Second compound 1 µM
  IC50: < 31.6 nM
Second compound 3.16 µM
  IC50: < 31.6 nM
Second compound 10 µM
  IC50: < 31.6 nM
Second compound 0.0316 µM, first compound 0.0316 µM
  viability, T/C: 86.5%
Second compound 0.0316 µM, first compound 0.1 µM
  viability, T/C: 90.7%
Second compound 0.0316 µM, first compound 0.316 µM
  viability, T/C: 115%
Second compound 0.0316 µM, first compound 1 µM
  viability, T/C: 81.4%
Second compound 0.0316 µM, first compound 3.16 µM
  viability, T/C: 91.8%
Second compound 0.0316 µM, first compound 10 µM
  viability, T/C: 75.6%
Second compound 0.1 µM, first compound 0.0316 µM
  viability, T/C: 98.9%
Second compound 0.1 µM, first compound 0.1 µM
  viability, T/C: 76.5%
Second compound 0.1 µM, first compound 0.316 µM
  viability, T/C: 93.7%
Second compound 0.1 µM, first compound 1 µM
  viability, T/C: 87%
Second compound 0.1 µM, first compound 3.16 µM
  viability, T/C: 70.7%
Second compound 0.1 µM, first compound 10 µM
  viability, T/C: 73.4%
Second compound 0.316 µM, first compound 0.0316 µM
  viability, T/C: 54%
Second compound 0.316 µM, first compound 0.1 µM
  viability, T/C: 54.5%
Second compound 0.316 µM, first compound 0.316 µM
  viability, T/C: 60.8%
Second compound 0.316 µM, first compound 1 µM
  viability, T/C: 45.9%
Second compound 0.316 µM, first compound 3.16 µM
  viability, T/C: 61%
Second compound 0.316 µM, first compound 10 µM
  viability, T/C: 55.6%
Second compound 1 µM, first compound 0.0316 µM
  viability, T/C: 42.2%
Second compound 1 µM, first compound 0.1 µM
  viability, T/C: 40.9%
Second compound 1 µM, first compound 0.316 µM
  viability, T/C: 42.3%
Second compound 1 µM, first compound 1 µM
  viability, T/C: 41.1%
Second compound 1 µM, first compound 3.16 µM
  viability, T/C: 39.7%
Second compound 1 µM, first compound 10 µM
  viability, T/C: 41.4%
Second compound 3.16 µM, first compound 0.0316 µM
  viability, T/C: 41.4%
Second compound 3.16 µM, first compound 0.1 µM
  viability, T/C: 48.8%
Second compound 3.16 µM, first compound 0.316 µM
  viability, T/C: 48.8%
Second compound 3.16 µM, first compound 1 µM
  viability, T/C: 41%
Second compound 3.16 µM, first compound 3.16 µM
  viability, T/C: 50.3%
Second compound 3.16 µM, first compound 10 µM
  viability, T/C: 46.2%
Second compound 10 µM, first compound 0.0316 µM
  viability, T/C: 38.3%
Second compound 10 µM, first compound 0.1 µM
  viability, T/C: 48.4%
Second compound 10 µM, first compound 0.316 µM
  viability, T/C: 42.7%
Second compound 10 µM, first compound 1 µM
  viability, T/C: 41.8%
Second compound 10 µM, first compound 3.16 µM
  viability, T/C: 43.3%
Second compound 10 µM, first compound 10 µM
  viability, T/C: 42.2%
